We go through 14 compounds from patent US4020111A, “Propynyloxy alkyl arene insecticides” (priority 1975, dated 1977).

For series [1], the system named is mice. Put plainly: extension of Secobarbital sleeping time by synergists. To be noted: Secobarbital 37 mg/K; for Relative Sleeping Time: treated/control. In kind it is in vivo, Swiss albino white male mice. The procedure:
(§1) The selectivity of the synergist compounds of this invention is illustrated by the results of sleeping-time extension tests and of acute toxicity tests on Swiss albino white male mice.
(§2) The effect of various synergist compounds on sleeping time of sodium secobarbital [Secobarbital] and of 3,3-diethyl-5-methyl-2,4-dioxypiperidine [Noludar] was determined by administering the drug, with and without synergist, to approximately 38-day old male mice weighing from 25 to 30 grams. Synergists were administered in each of two doses, 74.0 mg/kg (dilution being 2.0 mg/0.1 ml corn oil), and 110.0 mg/kg (dilution 3.0 mg/0.1 ml oil). Secobarbital was administered at a dose of 37.0 mg/kg (dilution 1.0 mg/0.1 ml water). Noludar was administered at a dose of 110.0 mg/kg (dilution 3.0 mg/0.1 ml water). The synergist was administered one hour prior to administration of the Secobarbital or Noludar. Secobarbital and Noludar sleeping times were obtained for both the control (drug only) and the treated (synergist plus drug) mice by noting the time lapse between the administration of the drug and the recovery of the righting reflex, i.e. when the animal regains conciousness and can walk up an inclined wooden tray with coordination. The relative sleeping time (R.S.) was noted. The R.S. is the extended sleeping time in the treated mice (synergist plus drug) divided by the sleeping time in the control mice (drug only). The mean sleeping time for the treated mice and the R.S. are shown on Table XXXXIV for various synergist compounds.

Series [2] concerns mice. Nature of the series: synergism of acute toxicity of Dimetilan, GS 13005, Secobarbital and Methadone (intraperitoneal). It counts as in vivo, Swiss albino white male mice. The settings on record: for number of mice dead: 48 hours, of eight mice. How it is done: The synergism of the acute toxicity of Dimetilan by various synergists was determined by tests on Swiss albino, white male mice aged 5 to 6 weeks and weighing 23 to 27 grams. The synergists and insecticides were dissolved in corn oil and the drugs were dissolved in distilled water. All compounds were administered intraperitoneally by injection in the lower quadrent of the abdomen. The synergist was administered in 0.1 ml of corn oil 1 hour prior to administration of the insecticide. Eight mice were treated, per dosage, with each synergist. The mice were watched for a minimum of 6 hours while held in a glass jar with bedding individually after intraperitoneal injection of the test solutions. Lethality was noted, the animals were weighed and transferred in cages, and food and water were supplied. Control mice were given 0.1 ml of corn oil at the time of administration of the synergist to the test mice and 0.1 ml corn oil plus Dimetilan at the time of administration of the insecticide to the test mice.
By the same procedure, the synergism of acute toxicity of GS 13005, Secobarbital and 6-dimethylamino-4,4-diphenyl-3-heptanone [Methadone] was determined.

Series [3] concerns mice. Put plainly: extension of Noludar sleeping time by synergists. To be noted: Noludar 110 mg/K, synergist 110 mg/K; for Relative Sleeping Time: treated/control. It counts as in vivo, Swiss albino white male mice. How it is done: as §1, §2
Series [4] concerns Wilson strain house flies. It counts as in vivo, house fly (susceptible Wilson strain). The settings on record: for Contact Synergistic Ratio, Carbaryl (LC50 insecticide alone / LC50 with synergist): in vivo; for Contact Synergistic Ratio, Pyrolan (LC50 insecticide alone / LC50 with synergist): synergist to insecticide 5:1 by weight, 24 h. The procedure:
The required solutions of the insecticide and of the synergist compound were prepared in acetone at a concentration of one milligram per milliliter. One-pint wide mouth glass jars were coated wiith the appropriate insecticide-synergist combination by rolling the jars containing aliquots of the appropriate solutions diluted to three milliliters with acetone to deposit, by evaporation, a film of the test materials. The flies were transferred under carbon dioxide anesthesia and held in the jar at room temperature. Perforated aluminum foil was used to cover the jars and to hold cotton saturated with 10% sugar solution. Counts were made at intervals, but the recorded mortality was based on 24-hour kill, rather than knockdown. All prostrate nonmoving flies were considered dead. A determination was then made of the contact synergistic ratio [SR], which is the ratio of the LC50 of insecticide alone to the LC50 of the insecticide when applied together with the synergist. The LC50 of the insecticide was estimated from a log-probit plot of percent kill versus dosage. […] The LC50 of the combination of insecticide and synergist was determined at a synergist to insecticide parts by weight ratio of five to one.

In series [5] the test system is IN/WHO strain house flies. Put plainly: topical application test, percent kill after 24 hours, IN/WHO strain. It counts as in vivo, house fly (susceptible IN/WHO strain). To be noted: HRS 1422 alone 0.125 μg/fly. How it is done: In Table IX, and in the tables following it, the doses of topically applied insecticides and of synergists unless otherwise noted are expressed as micrograms per fly (μg/fly).
The synergistic effect of O-(2-propynyl) oximes with mobam was determined from topical application tests on susceptible, female, IN/WHO strain house flies and from tests on resistant, female, Rutgers A strain house flies. The synergist and insecticide were dissolved in ACS Grade acetone in such quantities that a 1.0μ liter volume applied to the thorax of 3-to-5 day old CO2 -anesthetized female adult house flies contained the desired dosage. After being treated, the flies were confined, 10 to a plaster petri dish, with 3-5 dishes/treatment, and held for 24-hr. observation of mortality. Reconstituted skim milk on cotton dental wicks was provided during the holding period. The percent kills after 24 hours are shown in Table X for the IN/WHO strain and Table XI for the Rutgers A strain.
The synergistic effect of benzyl 2-propynyl ethers with mobam was determined from topical application tests on IN/WHO and Rutgers A strain houseflies, following the procedure of Example 5. The percent kills after 24 hours are shown in Table XIV for the IN/WHO strain and in Table XV for the Rutgers A strain.
The effects of varying the insecticide dose and the synergist-insecticide ratio are further illustrated, with synergist compounds II-D, II-E, II-F and Mobam insecticide, in Tables XVI, XVII and XVIII.
The synergistic effect on IN/WHO flies of synergist compound II-K with Dimetilan, pyrolan, Baygon and HRS 1422 is illustrated by the 24 hour percent mortality data in Tables XIX, XX and XXI.
The effect on IN/WHO flies of synergist compound IV-C, identified in Table IV, with mobam was determined by the topical application procedure of Example 5.
The synergistic effect with Diazinon of compounds I-B, I-D, I-F, I-G, I-H and I-I, identified in Tables I and Ia, was determined from topical application tests on IN/WHO strain houseflies and on Rutgers A strain houseflies by the procedure of Example 5. The percent kills after 24 hours are shown in Table XXV for the IN/WHO strain and Table XXVI for the Rutgers A strain.
The synergistic effect with GS 13005 of compounds I-A, I-B, I-D, I-E, I-F, I-G and I-I was determined from topical application tests to IN/WHO strain, Rutgers A strain and polyvalent CH strain houseflies using the procedures of Example 5. The percent kills of the IN/WHO strain flies after 24 hours are shown in Table XXVIII; of the Rutgers A strain, in Table XXIX; and of the polyvalent CH strain, in Table XXX. The doses of insecticide alone to the CH strain files caused 10-40% mortality.
The synergistic effect with Diazinon and GS 13005 of various of the benzyl 2-propynyl ethers identified in Tables II and IIa was determined by topical application tests on IN/WHO strain, and Rutgers A strain and polyvalent, resistant, CH strain houseflies using the procedures of Example 5. The percent kills after 24 hours of IN/WHO strain flies are shown in Table XXXI; of Rutgers A strain flies, in Table XXXII; and of CH strain flies, in Table XXXIII. The doses of insecticide alone to the CH strain flies caused 10-40% mortality.
The synergist effect on IN/WHO flies of synergist compound II-K with Gardona and Bidrin is illustrated by the 24 hour percent mortality data in Tables XXXIV and XXXV.
The synergistic effect on IN/WHO strain flies and Rutgers A strain flies of compound IV-C with GS 13005 and with Diazinon was determined by the topical application procedure of Example 5. The percent kills of IN/WHO strain flies after 24 hours are shown in Tables XXXVI and XXXVII; the percent kills of Rutgers A strain flies are shown in Tables XXXVIII and XXXIX.

The mark [6] stands for this setting: Dimetilan 8 mg/kg + synergist 80 mg/kg ip.
[7] abbreviates: Dimetilan 8 mg/kg + synergist 240 mg/kg ip.

Consider `C#CCOCc1ccc(Cl)cc1[N+](=O)[O-]` [II-J], for which the entries for the “Mean Sleeping Time” value in the series on mice [1] (synergist 74 mg/K), with mice [1] (synergist 110 mg/K) and with mice [3] were 27 min, 30 min and 70 min, respectively. The results for the “Relative Sleeping Time” value in the series with mice [1] (synergist 74 mg/K), with mice [1] (synergist 110 mg/K) and in the series with mice [3] were 1.0, 1.4 and 2.2, respectively. Moreover, the “number of mice dead” value is listed as 0 in the series with mice [2] (setting [6]) and 4 in the series with mice [2] (setting [7]). In addition, the “mice lethality (number dead)” value is 6 with mice [2] (GS 13005 71 mg/kg + synergist 213 mg/kg), 3 in the series on mice [2] (Methadone 32 mg/kg + synergist 215 mg/kg) and 0 in the series on mice [2] (Secobarbital 90 mg/kg + synergist 215 mg/kg).
Take `C#CCOCc1cccc(Cl)c1[N+](=O)[O-]` [II-I]: the “Mean Sleeping Time” value in the series with mice [1] (synergist 74 mg/K) was 31 min; in the series on mice [1] (synergist 110 mg/K), 32 min; in the series with mice [3] it was 56 min. The “Relative Sleeping Time” value in the series on mice [1] (synergist 74 mg/K) stood at 1.2; in the series with mice [1] (synergist 110 mg/K), 1.3; with mice [3], 1.8. Besides, the “number of mice dead” value in the series on mice [2] (setting [6]) came to 0; with mice [2] (setting [7]), 3.
For the compound `C=CCC1(C(C)CCC)C(=O)NC(=O)NC1=O` (centres unmarked) [Secobarbital, sodium secobarbital, reference compound], in the series on mice [2] (control: Secobarbital 90 mg/kg in 0.1 ml corn oil), the “mice lethality (number dead)” value was found to be 0.
In the case of `CCC(=O)C(CC(C)N(C)C)(c1ccccc1)c1ccccc1` (centres unmarked) [Methadone, 6-dimethylamino-4,4-diphenyl-3-heptanone, reference compound], the “mice lethality (number dead)” value with mice [2] (control: Methadone 32 mg/kg in 0.1 ml corn oil) was 2.
With `C#CCOCc1ccc(Cl)c([N+](=O)[O-])c1` [II-M], the entries for the “Mean Sleeping Time” value in the series with mice [1] (synergist 74 mg/K), with mice [1] (synergist 110 mg/K) and in the series with mice [3] were 29 min, 47 min and 47 min, respectively. The entries for the “Relative Sleeping Time” value in the series on mice [1] (synergist 74 mg/K), in the series on mice [1] (synergist 110 mg/K) and in the series on mice [3] were 1.0, 2 and 2.1, respectively. For the same compound, the “number of mice dead” value with mice [2] (setting [6]) was 0; in the series with mice [2] (setting [7]) it was 3.
As for `C#CCOCc1ccc(Cl)cc1` [II-A], in series [4], the “Contact Synergistic Ratio, Carbaryl (LC50 insecticide alone / LC50 with synergist)” value was 50 and the “Contact Synergistic Ratio, Pyrolan (LC50 insecticide alone / LC50 with synergist)” value is given as 7.
Taken in the same sequence, the figures for `C#CCOCc1ccc(Cl)cc1Cl` [II-B] were 50 and 15.
For `C#CCOCc1ccc2c(c1)OCO2` [II-G], in that order: 100 and 15.
Regarding `C#CCOCc1ccc([N+](=O)[O-])c(Cl)c1` [II-O], the “Mean Sleeping Time” value came to 26 min with mice [1] (synergist 110 mg/K) and 52 min with mice [3]. Further, the “Relative Sleeping Time” value in the series on mice [1] (synergist 110 mg/K) was found to be 1.1; in the series on mice [3] it was 2.4. Also, the “number of mice dead” value in the series with mice [2] (setting [6]) is 0; with mice [2] (setting [7]) it was 2.
In the case of `CNC(=O)Oc1cc(C(C)C)cc(C(C)C)c1` [HRS 1422, 3,5-di-isopropylphenyl methylcarbamate, reference compound], the “24 hour percent mortality” value in series [5] is 0%.
In the case of `C#CCOCc1ccc([N+](=O)[O-])cc1Cl` [II-N], the “Mean Sleeping Time” value in the series with mice [1] (synergist 74 mg/K) came out at 20 min; with mice [1] (synergist 110 mg/K), 39 min; in the series with mice [3], 58 min. For the same compound, the “Relative Sleeping Time” value amounted to 1.0 with mice [1] (synergist 74 mg/K), 1.7 in the series on mice [1] (synergist 110 mg/K) and 1.9 in the series on mice [3]. Besides, the “number of mice dead” value with mice [2] (setting [6]) came out at 0; in the series with mice [2] (setting [7]), 4.
`C#CCOC(c1cccc2ccccc12)C(C)[N+](=O)[O-]` (centres unmarked) [IV-B, 2-propynyl 1-naphthyl-2-nitropropyl ether]: in series [4], the “Contact Synergistic Ratio, Carbaryl (LC50 insecticide alone / LC50 with synergist)” value was determined as 50 and the “Contact Synergistic Ratio, Pyrolan (LC50 insecticide alone / LC50 with synergist)” value is reported as 10.
For `C#CCn1nc(Cl)c2ccc([N+](=O)[O-])cc21` [III-C, N-(2-propynyl)-3-chloro-6-nitroindazole], in that order: 53 and 10.
In the case of `C#CCOCc1cccc([N+](=O)[O-])c1Cl` [II-L], the “Mean Sleeping Time” value in the series with mice [1] (synergist 74 mg/K) came out at 31 min; in the series on mice [1] (synergist 110 mg/K), 42 min; in the series with mice [3] it was 56 min. Also, the results for the “Relative Sleeping Time” value in the series on mice [1] (synergist 74 mg/K), in the series on mice [1] (synergist 110 mg/K) and with mice [3] were 1.0, 1.8 and 1.8, respectively. In addition, the “number of mice dead” value in the series with mice [2] (setting [6]) is on record as 0; in the series with mice [2] (setting [7]), 5.
